± gives the expanded uncertainty stated by the source.
Details: 101.33 kPa, Liquid

In the case of CCCCCC[n+]1ccn(C)c1.O=S(=O)([N-]S(=O)(=O)C(F)(F)F)C(F)(F)F, the mass density (290.95 K) is reported as 1378.1 ± 0.8 kg/m3, the mass density (292.95 K) is reported as 1376.3 ± 0.8 kg/m3 and the mass density (294.95 K) is reported as 1374.4 ± 0.8 kg/m3. The mass density (296.95 K) was 1372.6 ± 0.8 kg/m3, the mass density (299 K) was 1370.8 ± 0.8 kg/m3 and the mass density (301 K) was 1369 ± 0.8 kg/m3. It also gave a mass density (303 K) of 1367.2 ± 0.8 kg/m3, a mass density (305.05 K) of 1365.3 ± 0.8 kg/m3 and a mass density (307.05 K) of 1363.5 ± 0.8 kg/m3.
